“And” between values parts separate entries of the source, which are not always exact repeats. Equal values may be shown once.
Tests used:
[1] = system: RPMI8226 cells; format: cell-based, human
Experimental: Human multiple myeloma cells, RPMI8226 were purchased from Bioresource Collection and Research Center (Hsinchu, Taiwan). Cells were cultivated in RPMI1640 medium supplemented with 10% FBS, 50 μg/ml penicillin, 50 μg/ml streptomycin, and 2 mM L-glutamine at 37 °C in a 5% CO2 atmosphere. Cell viability was determined by an MTT assay. […] MTT stock solution added to medium alone was included as a negative control. Aliquots (450 μl) from each sample were transferred to a new well of a 48-well culture plate, 100 μl DMSO added with thorough mixing, and allowed to react at 37 °C for 20 min before reading the absorbance at 570 nm.

[2] = system: JNK; assay: Western blot of phosphorylated JNK in RPMI8226 cells; format: cell-based, human; conditions: 10 ng/ml VEGF + 25 μM 7-mer
Text: (§1) Cell lysis and SDS–PAGE were as described previously. Antibodies used in this study were for active p38 MAPK and active JNK (Promega, Madison, WI), p38 MAPK/SAPK2, JNK (Upstate Biotechnology, Lake Placid, NY), p53 (Chemicon, Temecula, CA), bax, p21, cleaved caspase-3 and β-actin (Abcam Ltd., Cambridge, UK). Proteins of interest were detected using the appropriate IgG-horseradish peroxidase-linked secondary antibody (Santa Cruz Biotechnology) and enhanced chemiluminescence reagent (Amersham, Arlington Heights, IL). X-ray films were scanned on a model GS-700 Imaging Densitometer (Bio-Rad, Hercules, CA) and analyzed with Labworks 4.0 software. For quantification, blots from at least three independent experiments were used.
Fig. 3 The 7-mer induces JNK signaling to trigger RPMI8226 cell apoptosis. 3 × 10^5 cells were serum starved for 24 h and then exposed to 10 ng/ml VEGF and 25 μM 7-mer for the indicated time periods. a Western blotting was performed to detect the active phosphorylated forms of JNK (p-JNK) and p38 MAPK (p-p38), shown in the upper panels. Antibodies were then stripped and the blots were re-incubated with anti-JNK and anti-p38 MAPK antibodies (lower panels), respectively, to detect the levels of total JNK and p38 MAPK. b Densitometric analyses from three independent experiments are shown. c Cell were pretreated with 10 μM SP600125 or SB203580 for 10 min and then treated as described above for 24 h and apoptosis was quantified using the annexin V-FITC apoptosis detection kit. *P < 0.0001 versus 7-mer-treated cells

[3] = system: p53, Bax, p21, cleaved caspase-3; assay: Western blot of p53, Bax, p21 and cleaved caspase-3 in RPMI8226 cells; format: cell-based, human
Text: as §1
Fig. 4 The 7-mer induces JNK signaling to trigger p53/bax/p21^Waf1 expression in RPMI8226 cells. a and b Cell treatments were as described in Fig. 3. Cell lysates were then prepared for western blot analysis of p53, Bax, and p21. Representative blots and densitometric analyses from three independent experiments are shown. ^*P < 0.001 versus 7-mer-treated cells

[4] = system: rat aortic ring; assay: Rat aortic ring assay; conditions: 100 μM 7-mer, 5 days
Experimental: Thoracic aortas were removed from euthanized 10-week-old male Sprague Dawley rats and gently stripped of periaortic fibroadipose tissue. Aortas were sectioned into ~ 1 mm length rings, being manipulated in Medium 200. Matrigel (120 μl) mixed with 24 μl LSGS, 72 μl medium, 200 ng/ml VEGF and 100 μM 7-mer was used to embed the aortic ring and then polymerized in 12-well plates (37 °C for 30 min). Subsequently, 1 ml culture medium supplemented with 100 units/ml penicillin, and […] was added. The cultures were propagated at 37 °C in a humidified incubator for up to 5 days. Sprouts were recorded using an inverted microscope platform (Leica DMI6000B) with bright-field optics. Each ring was scored by three independent observers on a scale 0–3, depending on the degree of vessel sprouting observed (0 = no sprouting, 3 = profuse sprouting).
(§2) Fig. 6 The effect of the 7-mer on VEGF-induced microvessel sprouting of aortic ring and corneal neovascularization. a Rat aortic ring assay. Photomicrographs of aortic ring explants after treatment for 5 days (magnification × 40). Sprouting was evaluated on a scale from 0 (no sprouts) to 3 (profuse sprouting). There was no sprouting of vessels from ex vivo aortic rings embedded in Matrigel without LSGS or VEGF. b The 7-mer inhibits VEGF-induced corneal angiogenesis in C57BL/6 mice. […]

[5] = system: VEGF-induced corneal neovascularization; assay: Mouse corneal micropocket assay; format: in vivo; conditions: C57BL/6 mice, pellet with 200 ng VEGF + 2.5 μg 7-mer, day 7
Experimental: The assay was performed according to procedures described previously. Briefly, corneal micropockets were created in 6-week-old C57BL/6 mice with the needle of 1-ml injector. A micropellet of sucrose aluminum sulfate and hydron polymer containing 200 ng VEGF, with or without 2.5 μg 7-mer peptide, was delivered into each corneal pocket. Eyes were photographed by a slit-lamp biomicroscope on day 7 after micropellet implantation. Ingrowth of the blood vessels into the avascular cornea, towards the pellet, was scored as a positive response. The results are reported as the fraction of positive corneas of the total implanted.
as §2, with “mice. Representative corneas and final scoring determining the number of positive corneas per total implantations.” for “mice.”

[6] = 7-mer for 8 h, VEGF-treated RPMI8226 cells, densitometry, three independent experiments

## 7-mer: PEDF Asp64-Ser70, N-acetylated, C-amidated (Ac-DLYRVRS-NH2; UniProt P36955 64-70, looked up, fragment)
[1]
  cytotoxic effect on RPMI8226 cells in the absence of VEGF: neither peptide had a significant cytotoxic effect
[1]; 10 ng/ml VEGF + 1 μM peptide (lowest concentration), 24 h, mean ± SD
  MTT value, VEGF-induced RPMI8226 cell proliferation, 1 μM peptide: 101 ± 1.2%
[1]; 10 ng/ml VEGF + 25 μM peptide, 24 h
  anti-VEGF activity of the 7-mer relative to the 34-mer (MTT): ~ 1.5 fold
[1]; 10 ng/ml VEGF + 25 μM peptide, 24 h, serum-free medium, solvent-treated/untreated cells set as 100%, mean ± SD, three independent experiments
  MTT value, VEGF-induced RPMI8226 cell proliferation: 58 ± 4.1% and 57.3% and 54 ± 1.5%
[1]; 1, 5, 10 and 25 μM peptide with VEGF, MTT
  dose dependence of cell viability of VEGF-treated RPMI8226 cells: decreased cell viability in a dose-dependent manner
[2]
  time for which JNK phosphorylation was sustained: up to 10 h
  time of peak p-p46 JNK: 2 h
[2]; time course
  p-p46 JNK phosphorylation: increase in p-p46 JNK was detected 20 min after 7-mer treatment
[3]; [6]
  Bax protein level compared to solvent control: 4.5 ± 0.40 fold
  p21Waf1 protein level compared to solvent control: 5.5 ± 0.43 fold
  p53 protein level compared to solvent control: 3.6 ± 0.39 fold
[3]; 7-mer treatment for 24 h
  cleaved/active caspase-3: elevation of cleaved/active caspase-3
[4]; 200 ng/ml VEGF, P = 0.001
  VEGF-induced outgrowth of sprouts from aortic rings: this outgrowth was suppressed
[4]; LSGS + 200 ng/ml VEGF
  sprouts of aortic rings exposed to LSGS and VEGF: blocked by the 7-mer
[5]
  VEGF-induced neovessels in the corneas: prevented by the 7-mer
[5]; vehicle 10/12
  Positive Corneas /Total: 0/8
